Laboratory results as given in ChEMBL document CHEMBL4699612, “Discovery of thiosemicarbazone-containing compounds with potent anti-proliferation activity against drug-resistant K562/A02 cells” (Bioorg Med Chem Lett, 2020).
Values belong to the compound of their own block, whether it stands above or below them. Activity calls are given as the source filed them. The calls are words filed in the database; no cut-off is given here.

Columns and labels:
K562/A02 [1] = test: Antiproliferative activity against human K562/A02 cells overexpressing P-gp by MTT assay; assay type: functional, cell-based
[2] = Resistance index, ratio of IC50 for human K562/A02 cells to IC50 for human K562 cells; assay type: functional; set-up: reference not given here
K562 [3] = test: Antiproliferative activity against human K562 cells by MTT assay; assay type: functional, cell-based
Histone deacetylase 1 = Histone deacetylase 1 (Homo sapiens, UniProt Q13547); test: Inhibition of recombinant human HDAC1 using Boc-Lys(Ac)-AMC as substrate incubated for 60 mins by fluorimetric assay
Sequence of Histone deacetylase 1 (Q13547 whole entry): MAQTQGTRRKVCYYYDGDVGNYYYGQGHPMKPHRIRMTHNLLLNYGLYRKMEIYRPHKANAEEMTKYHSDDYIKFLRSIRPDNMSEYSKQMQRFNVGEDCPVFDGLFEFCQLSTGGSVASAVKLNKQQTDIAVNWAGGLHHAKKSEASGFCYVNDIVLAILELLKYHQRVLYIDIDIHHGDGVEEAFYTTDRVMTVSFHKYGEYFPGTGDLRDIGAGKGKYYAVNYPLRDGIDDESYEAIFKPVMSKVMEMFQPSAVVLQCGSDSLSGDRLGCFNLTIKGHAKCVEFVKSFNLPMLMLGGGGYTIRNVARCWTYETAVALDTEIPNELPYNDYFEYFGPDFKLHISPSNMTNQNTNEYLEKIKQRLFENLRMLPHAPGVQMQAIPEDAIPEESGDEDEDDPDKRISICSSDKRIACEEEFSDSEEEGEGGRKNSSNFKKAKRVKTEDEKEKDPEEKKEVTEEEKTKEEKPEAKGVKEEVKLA

Histone deacetylase 8 = molecular target: T1, Histone deacetylase 8 (Homo sapiens, UniProt Q9BY41); test: Inhibition of recombinant human HDAC8 using Boc-Lys(Ac)-AMC as substrate incubated for 60 mins by fluorimetric assay
T1 sequence (Q9BY41 whole entry): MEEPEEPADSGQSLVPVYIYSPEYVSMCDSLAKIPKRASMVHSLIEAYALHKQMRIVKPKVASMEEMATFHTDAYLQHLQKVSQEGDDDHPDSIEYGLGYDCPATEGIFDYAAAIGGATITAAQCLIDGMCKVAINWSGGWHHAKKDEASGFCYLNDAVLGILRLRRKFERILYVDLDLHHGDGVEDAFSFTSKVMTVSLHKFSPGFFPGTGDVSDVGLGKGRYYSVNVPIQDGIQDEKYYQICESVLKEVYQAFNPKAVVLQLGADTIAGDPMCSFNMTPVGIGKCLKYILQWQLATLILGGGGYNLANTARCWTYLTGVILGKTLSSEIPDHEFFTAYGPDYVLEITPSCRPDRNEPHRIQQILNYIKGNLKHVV

[4] = molecular target: T2, Protein deacetylase HDAC6 (Homo sapiens, UniProt Q9UBN7); test: Inhibition of recombinant human HDAC6 using Boc-Lys(Ac)-AMC as substrate incubated for 60 mins by fluorimetric assay
T2 sequence (Q9UBN7 whole entry): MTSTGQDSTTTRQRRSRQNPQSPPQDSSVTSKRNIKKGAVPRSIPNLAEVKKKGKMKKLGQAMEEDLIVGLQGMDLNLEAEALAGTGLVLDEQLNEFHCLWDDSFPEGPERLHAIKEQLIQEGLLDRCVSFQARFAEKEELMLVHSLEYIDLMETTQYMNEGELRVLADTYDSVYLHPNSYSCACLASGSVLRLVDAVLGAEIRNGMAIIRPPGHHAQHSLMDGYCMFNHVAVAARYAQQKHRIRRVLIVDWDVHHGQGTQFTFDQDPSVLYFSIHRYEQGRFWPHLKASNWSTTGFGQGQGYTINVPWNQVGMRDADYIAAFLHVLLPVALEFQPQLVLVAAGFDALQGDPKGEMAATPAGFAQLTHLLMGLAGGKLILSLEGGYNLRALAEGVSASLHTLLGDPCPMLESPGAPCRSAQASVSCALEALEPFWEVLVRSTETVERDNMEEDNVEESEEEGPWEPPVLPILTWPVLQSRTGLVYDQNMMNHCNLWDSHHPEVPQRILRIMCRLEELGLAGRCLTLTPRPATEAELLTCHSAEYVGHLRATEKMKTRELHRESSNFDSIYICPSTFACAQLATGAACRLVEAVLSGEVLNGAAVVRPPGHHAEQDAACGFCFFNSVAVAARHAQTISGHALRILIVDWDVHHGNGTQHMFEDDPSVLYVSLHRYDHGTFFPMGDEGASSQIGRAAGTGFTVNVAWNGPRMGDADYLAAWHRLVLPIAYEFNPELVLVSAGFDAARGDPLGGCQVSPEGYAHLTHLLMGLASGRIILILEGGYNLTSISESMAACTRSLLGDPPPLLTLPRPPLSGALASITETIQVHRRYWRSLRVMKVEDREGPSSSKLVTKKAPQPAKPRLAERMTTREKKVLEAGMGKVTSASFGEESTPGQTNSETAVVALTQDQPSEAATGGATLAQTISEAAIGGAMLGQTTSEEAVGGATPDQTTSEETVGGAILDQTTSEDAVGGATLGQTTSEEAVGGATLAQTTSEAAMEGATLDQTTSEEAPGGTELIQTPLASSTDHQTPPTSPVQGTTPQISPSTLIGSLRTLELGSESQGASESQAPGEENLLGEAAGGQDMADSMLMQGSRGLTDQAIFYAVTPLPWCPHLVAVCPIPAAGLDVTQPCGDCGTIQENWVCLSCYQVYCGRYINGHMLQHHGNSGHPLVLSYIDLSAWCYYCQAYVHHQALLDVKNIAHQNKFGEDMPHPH

K562/A02 [5] = test: Induction of apoptosis in human K562/A02 cells assessed as increase in cleaved PARP expression incubated for 48 hrs by Western blot analysis; assay type: functional, cell-based; details: dose microM 1-3, time 48.0 hrs
K562 [6] = test: Induction of ROS generation in human K562 cells at 1 to 3 uM by DCFHA-DA based assay; assay type: functional, cell-based; details: dose microM 1-3
K562/A02 [7] = test: Induction of apoptosis in human K562/A02 cells assessed as early apoptotic cells at 1 uM incubated for 48 hrs by annexin V and propidium iodide staining based flow cytometry (reference value: 1.42 %); assay type: functional
K562/A02 [8] = test: Induction of apoptosis in human K562/A02 cells assessed as early apoptotic cells at 3 uM incubated for 48 hrs by annexin V and propidium iodide staining based flow cytometry (reference value: 1.42 %); assay type: functional
K562/A02 [9] = test: Induction of ROS generation in human K562/A02 cells by DCFHA-DA based assay; assay type: functional, cell-based; details: dose microM 1-3
K562/A02 [10] = test: Effect on P-gp expression in human K562/A02 cells overexpressing P-gp; assay type: functional, cell-based
K562/A02 [11] = test: Induction of apoptosis in human K562/A02 cells assessed as viable cells at 3 uM incubated for 48 hrs by annexin V and propidium iodide staining based flow cytometry (reference value: 92.94 %); assay type: functional; details: read-out: Activity
K562/A02 [12] = test: Induction of apoptosis in human K562/A02 cells assessed as increase in Bax expression incubated for 48 hrs by Western blot analysis; assay type: functional, cell-based; details: dose microM 1-3, time 48.0 hrs
K562/A02 [13] = test: Induction of apoptosis in human K562/A02 cells assessed as late apoptotic cells at 3 uM incubated for 48 hrs by annexin V and propidium iodide staining based flow cytometry (reference value: 0.83 %); assay type: functional
K562/A02 [14] = test: Cytotoxicity against human K562/A02 cells at 3 uM incubated for 24 hrs in presence of ROS scavenger, NAC by MTT assay; assay type: functional, cell-based
K562/A02 [15] = test: Induction of apoptosis in human K562/A02 cells assessed as necrotic cells at 1 uM incubated for 48 hrs by annexin V and propidium iodide staining based flow cytometry (reference value: 4.81 %); assay type: functional
K562/A02 [16] = test: Induction of apoptosis in human K562/A02 cells assessed as decrease in Bcl2 expression incubated for 48 hrs by Western blot analysis; assay type: functional, cell-based; details: dose microM 1-3, time 48.0 hrs
K562/A02 [17] = test: Induction of apoptosis in human K562/A02 cells assessed as late apoptotic cells at 1 uM incubated for 48 hrs by annexin V and propidium iodide staining based flow cytometry (reference value: 0.83 %); assay type: functional
K562/A02 [18] = test: Up regulation of acetylated histone H4 expression level in human K562/A02 cells at 1 to 3 uM measured after 48 hrs by Western blot analysis; assay type: functional, cell-based; details: dose microM 1-3, time 48.0 hrs
K562/A02 [19] = test: Induction of ROS generation in human K562/A02 cells at 3 uM in presence of ROS scavenger, NAC by DCFHA-DA based assay; assay type: functional, cell-based
K562/A02 [20] = test: Up regulation of acetylated histone H3 expression level in human K562/A02 cells at 1 to 3 uM measured after 48 hrs by Western blot analysis; assay type: functional, cell-based; details: dose microM 1-3, time 48.0 hrs
K562/A02 [21] = test: Effect on P-gp activity in human K562/A02 cells; assay type: cell-based; details: filed as modulator
K562/A02 [22] = test: Induction of apoptosis in human K562/A02 cells assessed as necrotic cells at 3 uM incubated for 48 hrs by annexin V and propidium iodide staining based flow cytometry (reference value: 4.81 %); assay type: functional
K562/A02 [23] = test: Induction of apoptosis in human K562/A02 cells assessed as increase in cleaved caspase 3 expression incubated for 48 hrs by Western blot analysis; assay type: functional, cell-based; details: dose microM 1-3, time 48.0 hrs
K562/A02 [24] = test: Induction of apoptosis in human K562/A02 cells assessed as viable cells at 1 uM incubated for 48 hrs by annexin V and propidium iodide staining based flow cytometry (reference value: 92.94 %); assay type: functional; details: read-out: Activity

Compound: COc1cccc2c1C(=O)c1c(O)c3c(c(O)c1C2=O)C[C@@](O)(C(=O)CO)C[C@@H]3O[C@H]1C[C@H](N)[C@H](O)[C@H](C)O1.Cl [DOXORUBICIN HYDROCHLORIDE]
IC50 (K562/A02 [1]): 23400 nM | Ratio IC50 [2]: 28.21 | IC50 (K562 [3]): 830 nM

Compound: O=C(CCCCCNC(=S)N/N=C(\c1ccccc1)c1ccccc1[N+](=O)[O-])NO
IC50 (K562/A02 [1]): 1310 nM | Ratio IC50 [2]: 0.56 | IC50 (K562 [3]): 2330 nM

Compound: C/C(=N\NC(=S)NCCCC(=O)NO)c1ccc([N+](=O)[O-])cc1
IC50 (K562/A02 [1]): > 10000 nM | IC50 (K562 [3]): > 10000 nM

Compound: C/C(=N\NC(=S)NCCCC(=O)NO)c1cccc([N+](=O)[O-])c1
IC50 (K562/A02 [1]): > 10000 nM | IC50 (K562 [3]): > 10000 nM

Compound: Cc1ccc(/C(=N/NC(=S)NCCCCCC(=O)NO)c2ccccc2)cc1
IC50 (K562/A02 [1]): 3150 nM | Ratio IC50 [2]: 0.73 | IC50 (K562 [3]): 4340 nM

Compound: O=C(CCCCCNC(=S)N/N=C(\c1ccccc1)c1ccccn1)NO
IC50 (K562/A02 [1]): 2030 nM | Ratio IC50 [2]: 0.95 | IC50 (K562 [3]): 2140 nM

Compound: COc1cccc(/C(C)=N/NC(=S)NCCCCCC(=O)NO)c1
IC50 (K562/A02 [1]): 1890 nM | Ratio IC50 [2]: 0.98 | IC50 (K562 [3]): 1910 nM

More lines, main results first:

IC50 (K562/A02 [1]): 3640 nM | IC50 (K562 [3]): 3810 nM
Compound: O=C(CCCCCNC(=S)NN=C(c1ccccc1)c1ccccc1)NO
Ratio IC50 [2]: 0.96

IC50 (K562/A02 [1]): 2910 nM | IC50 (K562 [3]): 3560 nM
Compound: COc1ccccc1/C(=N/NC(=S)NCCCCCC(=O)NO)c1ccccc1
Ratio IC50 [2]: 0.82

IC50 (K562/A02 [1]): 940 nM | IC50 (Histone deacetylase 1): 71.1 nM | IC50 (Histone deacetylase 8): > 5000 nM | IC50 [4]: 46.8 nM | IC50 (K562 [3]): 1630 nM
Compound: O=C(CCCCCNC(=S)N/N=C(\c1ccccc1)c1cccc([N+](=O)[O-])c1)NO
Ratio IC50 [2]: 0.58

IC50 (K562/A02 [1]): 440 nM | IC50 (Histone deacetylase 1): 38.6 nM | IC50 (Histone deacetylase 8): > 5000 nM | IC50 [4]: 34.6 nM | IC50 (K562 [3]): 960 nM
Compound: C/C(=N\NC(=S)NCCCCCC(=O)NO)c1ccc(Br)cc1
Activity (K562/A02 [5]): Dose-dependent effect | Activity (K562 [6]): inactive | Activity (K562/A02 [7]): 16.35% | Activity (K562/A02 [8]): 22.28% | Activity (K562/A02 [9]): Dose-dependent effect | Activity (K562/A02 [10]): Active | Ratio IC50 [2]: 0.46 | viability at 3 µM (K562/A02 [11]): 18.9% | Activity (K562/A02 [12]): Dose-dependent effect | Activity (K562/A02 [13]): 53.69% | Activity (K562/A02 [14]): inactive | Activity (K562/A02 [15]): 4.4% | Activity (K562/A02 [16]): Dose-dependent effect | Activity (K562/A02 [17]): 52% | Activity (K562/A02 [18]): Active | Activity (K562/A02 [19]): inactive | Activity (K562/A02 [20]): Active | Activity (K562/A02 [21]): Active | Activity (K562/A02 [22]): 5.18% | Activity (K562/A02 [23]): Dose-dependent effect | viability at 1 µM (K562/A02 [24]): 27.2%

IC50 (K562/A02 [1]): 2180 nM | IC50 (K562 [3]): 2870 nM
Compound: O=C(CCCCCNC(=S)NN=C(c1ccccn1)c1ccccn1)NO
Ratio IC50 [2]: 0.76
